Assay results from PubChem BioAssay AID588645 (Sanford-Burnham Center for Chemical Genomics, 2011).
Calls of active or inactive are those of the source. The rule behind the calls is not given here.

Target: Intestinal-type alkaline phosphatase (Homo sapiens) (UniProt P09923)
Assay: inhibition of human intestinal alkaline phosphatase – biochemical, set 2, mouse IAP inhibitor project, SAR follow-up (AID 588645)
Conditions: human intestinal alkaline phosphatase enzymatic inhibition assay

Intestinal-type alkaline phosphatase (Homo sapiens), sequence (P09923 whole entry, looked up): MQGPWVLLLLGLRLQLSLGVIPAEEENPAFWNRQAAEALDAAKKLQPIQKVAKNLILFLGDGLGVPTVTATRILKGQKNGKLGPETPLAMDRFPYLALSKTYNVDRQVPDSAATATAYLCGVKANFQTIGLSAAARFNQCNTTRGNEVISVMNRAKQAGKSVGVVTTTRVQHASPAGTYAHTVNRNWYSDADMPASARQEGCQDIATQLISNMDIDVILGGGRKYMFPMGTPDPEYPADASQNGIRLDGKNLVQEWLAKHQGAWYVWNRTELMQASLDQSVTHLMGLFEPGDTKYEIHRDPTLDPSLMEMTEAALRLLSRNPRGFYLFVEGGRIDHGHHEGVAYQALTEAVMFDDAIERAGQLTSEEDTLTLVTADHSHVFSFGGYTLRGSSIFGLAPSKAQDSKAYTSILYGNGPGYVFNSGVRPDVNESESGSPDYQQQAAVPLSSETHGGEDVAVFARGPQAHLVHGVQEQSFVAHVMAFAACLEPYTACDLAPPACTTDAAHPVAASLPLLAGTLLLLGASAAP

| SMILES | IC50 |
| --- | --- |
| COc1ccc(NC(=O)CCNS(=O)(=O)c2ccc3ccccc3c2)cc1OC | > 100 µM (inactive) |
| O=C(CCCNS(=O)(=O)c1ccc2[nH]c(=O)oc2c1)NCc1ccccc1Cl | > 100 µM (inactive) |
| CN(C)c1ccc(CNC(=O)C2CCCN(S(=O)(=O)c3ccc4[nH]c(=O)oc4c3)C2)cc1 (configuration not stated) | > 100 µM (inactive) |
| Cc1ccc(NC(=O)CCNS(=O)(=O)c2ccc3c(c2)oc(=O)n3C)cc1C | > 100 µM (inactive) |
| O=C(NN=Cc1ccccc1F)c1ccc(O)cc1 | > 100 µM (inactive) |
| Cc1ccc(C)c(NC(=O)CNS(=O)(=O)c2ccc3[nH]c(=O)oc3c2)c1 | > 100 µM (inactive) |
| O=C(N/N=C/c1ccccc1C(F)(F)F)c1cc(O)c(O)c(O)c1 | > 100 µM (inactive) |
| O=C(N/N=C/c1c(F)cccc1Cl)c1cc(O)c(O)c(O)c1 | > 100 µM (inactive) |
| O=C(N/N=C/c1cc(Br)ccc1F)c1ccc(O)cc1 | > 100 µM (inactive) |
| O=C(CCNS(=O)(=O)c1ccc2[nH]c(=O)oc2c1)NCc1ccc(C(F)(F)F)cc1 | > 100 µM (inactive) |
| O=C(CCNS(=O)(=O)c1ccc2[nH]c(=O)oc2c1)NCc1ccc(O)c(O)c1 | 18.1 µM |
| COc1ccc(CNC(=O)CCNS(=O)(=O)c2ccc3ccccc3c2)c(OC)c1 | > 100 µM (inactive) |
| COc1ccc(/C=N/NC(=O)c2cc(O)c(O)c(O)c2)c(OC)c1 | > 100 µM (inactive) |
| O=C(NCc1ccc(F)cc1)C1CCCN(S(=O)(=O)c2ccc3[nH]c(=O)oc3c2)C1 (configuration not stated) | > 100 µM (inactive) |
| COc1cccc(CNS(=O)(=O)c2ccc3[nH]c(=O)oc3c2)c1 | > 100 µM (inactive) |
| O=C(CCNS(=O)(=O)c1ccc2ccccc2c1)NCCc1ccc2c(c1)OCO2 | > 100 µM (inactive) |
| COc1ccc(OC)c(NC(=O)C2CCCN(S(=O)(=O)c3ccc4c(c3)oc(=O)n4C)C2)c1 (configuration not stated) | > 100 µM (inactive) |
| CCOc1ccc(CNC(=O)C2CCCN(S(=O)(=O)c3ccc4[nH]c(=O)oc4c3)C2)cc1OC (configuration not stated) | > 100 µM (inactive) |
| O=C(CCNS(=O)(=O)c1ccc2[nH]c(=O)oc2c1)NCc1cccc(C(F)(F)F)c1 | > 100 µM (inactive) |
| COc1ccc(CNC(=O)CCNS(=O)(=O)c2ccc3c(c2)CCC3)c(OC)c1 | > 100 µM (inactive) |
| O=C(CNS(=O)(=O)c1ccc2[nH]c(=O)oc2c1)NCCc1ccc2c(c1)OCO2 | > 100 µM (inactive) |
| COc1ccccc1CNC(=O)CCCNS(=O)(=O)c1ccc2[nH]c(=O)oc2c1 | > 100 µM (inactive) |
| COc1ccc(C(=O)N/N=C/c2c(F)cccc2Cl)cc1OC | > 100 µM (inactive) |
| COc1ccc(NC(=O)CCCNS(=O)(=O)c2ccc3[nH]c(=O)oc3c2)c(OC)c1 | > 100 µM (inactive) |
| O=c1[nH]c2ccc(S(=O)(=O)Nc3ccc4c(c3)OCO4)cc2o1 | > 100 µM (inactive) |
| CCOc1cc(C(=O)N/N=C/c2c(F)cccc2Cl)cc(OCC)c1OCC | > 100 µM (inactive) |
| COc1ccc(CNC(=O)CCCNS(=O)(=O)c2ccc3[nH]c(=O)oc3c2)cc1OC | > 100 µM (inactive) |
